Tests used:
Format in all cases: cell-based
[1] = system: T-47D breast cancer cells; test: MTT cell viability assay, T-47D; settings: 48 h, mean ± SD; for LD50 T-47D / GI50 / TGI T-47D: Table S1; for IC50 / GI50: Homo sapiens, T47D; for TGI T-47D: in vitro TGI concentration
Experimental: (§1) The cell lines were purchased from the American Type Culture Collection (ATCC). The cancer cell lines DU-145, PC-3, T-47D, MDA-MB-231, H1299, and A549, and the non-tumorigenic cells (184B5 and BEAS-2B), were maintained in RPMI 1640 medium (Gibco, Alcobendas, Madrid, Spain) supplemented with 10% fetal bovine serum (FBS; Gibco) and 1% antibiotics (10.00 units/mL penicillin and 10.00 mg/mL streptomycin; Gibco). Colon cancer cells HT-29 and HCT-116 were cultured in McCoy’s 5A medium (Gibco) supplemented with 10% fetal bovine serum (FBS; Gibco) and 1% antibiotics (10.00 units/mL penicillin and 10.00 mg/mL streptomycin; Gibco). Cells were maintained in tissue culture flasks at 37 °C and 5% CO2. The culture medium was replaced every three days.
(§2) The antiproliferative activity and selectivity in vitro of the Se-NSAID derivatives were determined by the (3-(4,5-dimethylthiazol-2-yl)-2,5-diphenyltetrazolium bromide) (MTT) assay. Compounds were dissolved in DMSO at a concentration of 0.01 M and serial dilutions were prepared. The Se-NSAID derivatives were tested at seven concentrations ranging between 1 and 100 µM in the colon (HT-29 and HCT-116), prostate (DU-145 and PC-3), breast (MDA-MB-231 and T-47D), and lung (H1299 and A549) cancer cell lines. The non-tumorigenic breast (184B5) and lung (BEAS-2B) cell lines were also tested to assess the selectivity of the compounds following the same procedure. A total of 1 × 10^4 cells were seeded per well in 96-well plates and incubated at 5% CO2 and 37 °C for 24 h. Then, cells were treated with either DMSO or increasing concentrations of the corresponding Se-NSAID derivatives for 48 h. A volume of 20 µL of MTT (5 mg/mL) was added to each well 2.5 h before the termination point. At the end of the experiment, the medium was removed, and the resultant formazan crystals formed by mitochondrial reduction of MTT were dissolved in 50 µL of DMSO. Absorbance was measured at 550 nm. IC50, GI50, TGI, and LC50 values were calculated using OriginPro version 8.5.1. software by nonlinear curve fitting. Selectivity indexes (SI) were calculated as the ratio of the IC50 values determined for the nonmalignant and the tumoral cells in the breast (IC50 (184B5)/IC50 (MDA-MB-231) and IC50 (184B5)/IC50 (T-47D)) and lung (IC50 (BEAS-2B)/IC50 (H1299) and IC50 (BEAS-2B)/IC50 (A549)) cell lines. Data were obtained from at least three independent experiments performed in triplicates.

[2] = system: BEAS-2B non-tumorigenic lung (bronchial epithelium) cells; test: MTT cell viability assay, BEAS-2B; settings: 48 h, mean ± SD; for LD50 BEAS-2B / GI50 / TGI BEAS-2B: Table S1; for IC50: nonmalignant lung cells; for TGI BEAS-2B: in vitro TGI concentration
Experimental: as §1, §2

[3] = system: 184B5 non-tumorigenic breast (mammary gland) cells; test: MTT cell viability assay, 184B5; settings: mean ± SD; for IC50: nonmalignant breast cells; for TGI 184B5: in vitro TGI concentration
Experimental: as §1, §2

[4] = system: DU-145 prostate cancer cells; test: MTT cell viability assay, DU-145; settings: mean ± SD; for LD50 DU-145 / GI50 / TGI DU-145: Table S1; for TGI DU-145: in vitro TGI concentration
Experimental: as §1, §2

[5] = system: panel of eight cancer cell lines; test: MTT cell viability assay, statements on the whole panel; settings: 48 h
Experimental: as §1, §2

[6] = system: MDA-MB-231 breast cancer cells; test: MTT cell viability assay, MDA-MB-231; settings: mean ± SD; for IC50 / GI50: Homo sapiens, MDA-MB-231, 48 h; for GI50 / TGI MDA-MB-231: Table S1; for TGI MDA-MB-231: in vitro TGI concentration, 48 h
Experimental: as §1, §2

[7] = system: PC-3 prostate cancer cells; test: MTT cell viability assay, PC-3; settings: 48 h, mean ± SD; for GI50 / LD50 PC-3 / TGI PC-3: Table S1; for TGI PC-3: in vitro TGI concentration
Experimental: as §1, §2

A549 lung cancer cells = test: MTT cell viability assay, A549; settings: mean ± SD; for TGI A549: in vitro TGI concentration
Experimental: as §1, §2

H1299 lung cancer cells = test: MTT cell viability assay, H1299; settings: mean ± SD; for TGI H1299: in vitro TGI concentration
Experimental: as §1, §2

[8] = system: HCT-116 colon cancer cells; test: MTT cell viability assay, HCT-116; settings: mean ± SD; for TGI HCT-116: in vitro TGI concentration
Experimental: as §1, §2

HT-29 colon cancer cells = test: MTT cell viability assay, HT-29; settings: mean ± SD; for IC50 / GI50: Homo sapiens, HT-29, 48 h; for TGI HT-29: in vitro TGI concentration
Experimental: as §1, §2

[9] = Homo sapiens, 184B5, 48 h, Table S1
[10] = Homo sapiens, A549, 48 h, Table S1
[11] = Homo sapiens, NCI-H1299, 48 h, Table S1
[12] = Homo sapiens, HCT-116, 48 h, Table S1

## COc1ccc2cc(C(C)C(=O)[Se][Se]C(=O)C(C)c3ccc4cc(OC)ccc4c3)ccc2c1 (centres unmarked) [Compound 3, 2-(6-Methoxynaphthalen-2-yl)propanoic diselenoperoxyanhydride]
[1]
  LD50 T-47D: 6.3 ± 0.7 µM
  IC50: 5.6 ± 0.1 µM
  GI50: 1.8 ± 0.2 µM
  TGI T-47D: 3.1 ± 0.3 µM
[2]
  LD50 BEAS-2B: 12.3 ± 2.1 µM
  TGI BEAS-2B: 9.0 ± 1.2 µM
[2]; Homo sapiens, BEAS-2B
  GI50: 7 ± 2.5 µM
  IC50: 11.2 ± 1 µM
[3]; [9]
  GI50: 7.1 ± 0.5 µM
[3]; Homo sapiens, 184B5, 48 h
  IC50: 11.9 ± 1 µM
[3]; 48 h, Table S1
  TGI 184B5: 9.4 ± 0.2 µM
[4]; 48 h
  LD50 DU-145: 10.4 ± 2.4 µM
  TGI DU-145: 6.1 ± 0.6 µM
[4]; Homo sapiens, DU-145, 48 h
  IC50: 6.1 ± 0.6 µM
  GI50: 5 ± 0.2 µM
[5]; eight cancer cell lines, read-out: GI50 across all the cancer cell lines tested
  GI50: < 10 µM
[5]; read-out: average IC50 in prostate (DU-145 and PC-3) and breast (MDA-MB-231 and T-47D) cancer cell lines
  IC50: ~5 µM
[6]
  IC50: 5.7 ± 0.8 µM
  GI50: 5.2 ± 0.2 µM
  TGI MDA-MB-231: 5.6 ± 0.8 µM
[7]
  IC50: 5.2 ± 0.2 µM
  GI50: 4.4 ± 0.3 µM
  LD50 PC-3: 5.9 ± 0.9 µM
  TGI PC-3: 5.0 ± 0.1 µM
A549 lung cancer cells; 48 h
  IC50: > 100 µM
  IC50 A549: no activity at all
A549 lung cancer cells; Homo sapiens, A549, 48 h
  IC50: > 50 µM
A549 lung cancer cells; [10]
  GI50: 3.3 ± 0.4 µM
H1299 lung cancer cells; Homo sapiens, NCI-H1299, 48 h
  IC50: 8.1 ± 2.5 µM
H1299 lung cancer cells; [11]
  GI50: 6.7 ± 1.1 µM
[8]; Homo sapiens, HCT-116, 48 h
  IC50: 9.1 ± 5.9 µM
[8]; [12]
  GI50: 9.3 ± 4.7 µM
[8]; 48 h, Table S1
  TGI HCT-116: 30.9 ± 16.7 µM
HT-29 colon cancer cells; 48 h
  IC50 HT-29: no activity at all
HT-29 colon cancer cells
  IC50: > 50 µM
HT-29 colon cancer cells; Table S1
  GI50: 6.8 ± 1.4 µM

## CC(=O)Oc1ccccc1C(=O)[Se][Se]C(=O)c1ccccc1OC(C)=O [Compound 1, 2-Acetoxybenzoic diselenoperoxyanhydride]
[1]
  LD50 T-47D: 6.0 ± 1.9 µM
  IC50: 5.9 ± 1.4 µM
  GI50: 1.6 ± 0.3 µM
  TGI T-47D: 2.9 ± 0.6 µM
[2]
  LD50 BEAS-2B: 17.0 ± 5.7 µM
  IC50: 18.5 ± 3 µM
  TGI BEAS-2B: 8.4 ± 2.4 µM
[2]; Homo sapiens, BEAS-2B
  GI50: 3.9 ± 1.3 µM
  IC50: 14 to 19 µM
[3]; 48 h, Table S1
  LD50 184B5: 21.1 ± 3.9 µM
  TGI 184B5: 11.3 ± 1.4 µM
[3]; 48 h
  IC50: 14.4 ± 1.5 µM
[3]; [9]
  GI50: 7 ± 1.1 µM
[3]; Homo sapiens, 184B5, 48 h
  IC50: 14 to 19 µM
[4]; 48 h
  IC50: 5 ± 0.1 µM
  LD50 DU-145: 6.1 ± 0.7 µM
  TGI DU-145: 5.1 ± 0.2 µM
[4]; Homo sapiens, DU-145, 48 h
  IC50: < 10 µM
  GI50: 4.4 ± 0.5 µM
[6]
  IC50: 18.3 ± 6.9 µM
  GI50: 6.6 ± 2.2 µM
  TGI MDA-MB-231: 15.3 ± 4.6 µM
[7]
  GI50: 2.8 ± 0.2 µM
  LD50 PC-3: 3.3 ± 0.4 µM
  TGI PC-3: 3.0 ± 0.3 µM
A549 lung cancer cells; 48 h
  IC50: 7 ± 1.3 µM
A549 lung cancer cells; 48 h, Table S1
  LD50 A549: 74.6 ± 5.9 µM
  TGI A549: 26.2 ± 5.8 µM
A549 lung cancer cells; Homo sapiens, A549, 48 h
  IC50: < 10 µM
A549 lung cancer cells; [10]
  GI50: > 100 µM
H1299 lung cancer cells; 48 h
  IC50: 8.6 ± 0.8 µM
H1299 lung cancer cells; Homo sapiens, NCI-H1299, 48 h
  IC50: < 10 µM
H1299 lung cancer cells; [11]
  GI50: 7.7 ± 1.2 µM
H1299 lung cancer cells; 48 h, Table S1
  TGI H1299: 9.4 ± 0.8 µM
[8]; 48 h
  IC50: 39.2 ± 7.3 µM
[8]; 48 h, Table S1
  LD50 HCT-116: 88.0 ± 3.5 µM
  TGI HCT-116: 44.5 ± 7.1 µM
[8]; Homo sapiens, HCT-116, 48 h
  IC50: ~40 µM
[8]; [12]
  GI50: 21 ± 4 µM
HT-29 colon cancer cells
  IC50: 6.6 ± 2.2 µM
HT-29 colon cancer cells; Table S1
  GI50: 3.9 ± 0.4 µM
HT-29 colon cancer cells; 48 h, Table S1
  TGI HT-29: 6.2 ± 1.9 µM

## CC(C(=O)[Se][Se]C(=O)C(C)c1cccc(C(=O)c2ccccc2)c1)c1cccc(C(=O)c2ccccc2)c1 (centres unmarked) [Compound 4, 2-(3-Benzoylphenyl)propanoic diselenoperoxyanhydride]
[1]
  LD50 T-47D: 27.2 ± 2.3 µM
  IC50: 26 ± 2 µM
  GI50: > 100 µM
  TGI T-47D: 9.5 ± 2.3 µM
[2]
  LD50 BEAS-2B: 5.4 ± 0.4 µM
  IC50: 5.2 ± 0.4 µM
  TGI BEAS-2B: 4.7 ± 0.3 µM
[2]; Homo sapiens, BEAS-2B
  GI50: 4.2 ± 0.6 µM
  IC50: ~5 µM
[3]; 48 h
  IC50: 5.9 ± 0.8 µM
[3]; [9]
  GI50: 4.8 ± 0.3 µM
[3]; Homo sapiens, 184B5, 48 h
  IC50: ~5 µM
[3]; 48 h, Table S1
  TGI 184B5: 5.4 ± 0.4 µM
[4]; 48 h
  LD50 DU-145: 39.6 ± 2.4 µM
  TGI DU-145: 28.5 ± 2.9 µM
[4]; Homo sapiens, DU-145, 48 h
  IC50: 27.9 ± 3.2 µM
  GI50: 19.5 ± 3.5 µM
[6]
  IC50: 4.3 ± 1.2 µM
  GI50: 2.4 ± 0.5 µM
  TGI MDA-MB-231: 4.2 ± 1.7 µM
[7]
  IC50: 5.8 ± 0.6 µM
  GI50: 4.8 ± 0.4 µM
  LD50 PC-3: 6.7 ± 1.2 µM
  TGI PC-3: 5.5 ± 0.5 µM
A549 lung cancer cells; Homo sapiens, A549, 48 h
  IC50: 11.7 ± 0.9 µM
A549 lung cancer cells; [10]
  GI50: 8.1 ± 0.4 µM
A549 lung cancer cells; 48 h, Table S1
  TGI A549: 19.9 ± 3.4 µM
H1299 lung cancer cells; 48 h, Table S1
  LD50 H1299: 43.5 ± 1.8 µM
  TGI H1299: 33.6 ± 1.6 µM
H1299 lung cancer cells; Homo sapiens, NCI-H1299, 48 h
  IC50: 31.6 ± 1.7 µM
H1299 lung cancer cells; [11]
  GI50: 24.6 ± 1.8 µM
[8]; Homo sapiens, HCT-116, 48 h
  IC50: 5.9 ± 1.1 µM
[8]; [12]
  GI50: 4.3 ± 0.6 µM
[8]; 48 h, Table S1
  TGI HCT-116: 6.7 ± 1.9 µM
HT-29 colon cancer cells; 48 h, Table S1
  LD50 HT-29: 62.5 ± 14.3 µM
  TGI HT-29: 36.2 ± 3.0 µM
HT-29 colon cancer cells
  IC50: 39.7 ± 3.3 µM
HT-29 colon cancer cells; Table S1
  GI50: 24.4 ± 2.6 µM

Reference: publication PMC10525927, “First Generation of Antioxidant Precursors for Bioisosteric Se-NSAIDs: Design, Synthesis, and In Vitro and In Vivo Anticancer Evaluation” (Antioxidants, 2023)
